Experimental data reported in PMC5719405, “Sex-related pharmacokinetic differences and mechanisms of metapristone (RU486 metabolite)” (Scientific Reports, 2017).
Where two headings read alike, the source gives them in different places.

Experiments:
CYP1A2 = assay: Western blotting of rat liver CYP1A2 after 7-day oral metapristone; assay type: in vivo
Description: To further confirm CYP1A2 and CYP3A4 are the primary CYP isoforms that metabolize metapristone, we administered oral metapristone (22.5 and 45 mg/kg/day for 7 days) to male and female rats, respectively, and measured the activity of liver CYP1A2 and CYP3A4 by using the western blotting assay. We selected western blot staining density from the controls as the basis (100%) to compare changes in CYP1A2 and CYP3A4 activity after metapristone treatment.
The total microsomal protein was extracted from rat livers prepared by diluting liver microsomal suspension with 1 volume of immunoprecipitation assay lysis buffer (150 mM NaCl, 1% NP-40, 0.5% sodium deoxy-cholic acid, 0.1% SDS, and 50 mM Tris-Cl, pH 7.5) for 15 min and then centrifuged at 13,000 rpm 4 °C for 10 min. Aliquots containing 20 µg of protein were separated by SDS-PAGE on a 10% gradient gel (Invitrogen, USA) and transferred to a PVDF membrane that was blocked with 5% non-fat dry milk in Tris-buffered saline with Tween 20 (200 mM Tris–HCl, 1.37 M NaCl, 0.1% Tween 20, pH 7.6) for 1 h. The membrane was then incubated with rabbit anti-rat CYP1A2 polyclonal antibody (1:2000 dilution), rabbit anti-rat CYP3A4 polyclonal antibody (1:1000 dilution) and glyceraldehyde-3-phosphate dehydrogenase (GAPDH) antibody (1:2000 dilution), overnight at 4 °C. After rinsing five times with buffer TBST at room temperature, the membrane was incubated with horseradish peroxidase (HRP)-labeled anti-rabbit immunoglobulin G (IgG) anti-body (Santa Cruz Biotechnology, USA). The immunoreactive bands were visualized using an enhanced chemiluminescence detection system (ChemiDoc™XRS + , Bio-Rad, Hercules, CA, USA) and quantified by using densitometry Image J 1.41 software.

[1] = Single oral dose pharmacokinetics of metapristone in beagle dogs, non-compartmental analysis; assay type: in vivo; conditions: for AUC(0-inf) / AUC(0-t) / CL/F / Cmax / Tmax / Vd/F / half-life / MRT last: beagle, dog, plasma, po; for MRT last: read-out: MRT (0-t)
Description: For pharmacokinetic study, rats were fasted overnight with free access to water using procedures reported previously. Ninety-six SD rats (forty-eight males and forty-eight females) were randomly divided into […] single-dose groups. Rats (six animals/sex/dose) were given a single oral dose of 22.5, 45 and 90 mg/kg metapristone (in soybean oil solution) by intragastric administration or 10 mg/kg metapristone by intravenous bolus injection. Rat blood samples (0.25 mL) were collected from the ocular vein into heparinized tubes prior to and at 0 (before administration), 0.5, 1.0, 1.5, 2.0, 4.0, 6.0, 8.0, 12, 24, 36 and 48 h post-dosing in female rats or 0.5, 1.0, 1.5, 2.0, 4.0, 6.0, 8.0, 12, 24, 30 and 36 h post-dosing in male rats. In the repeated dose study twenty-four rats (six animals/sex/dose) received the same dosing regimen at 45 mg/kg metapristone for 10 days. Blood samples were collected after oral administration on day 1 and 10 at T max. The samples were stored at −80 °C until analysis. Beagle dogs (three animals/sex/dose) were dosed by gavage at 5.62, 11.25, 22.5 mg/kg metapristone (in soybean oil solution). Dog blood (0.25 mL) was withdrawn from the jugular vein at 0.5, 1.0, 2.0, 4.0, 6.0, 8.0, 10, 12, 24 and 48 h after a single oral administration.
The plasma samples obtained by centrifugation at 4000 g for 10 min and stored at −80 °Cuntil analysis. To each 100 µL of plasma sample, 50 µL of internal standard solution were added. Metapristone was then separated and analyzed by the LC/MS/MS method according to the previously described procedures. Peak area ratios of metapristone to the internal standard were plotted against theoretical concentrations. The maximum plasma concentration (C max), the time to reach C max (T max) were determined directly from experimental data. The other pharmacokinetic parameters such as elimination half-life (t 1/2), and mean residence time (MRT) were calculated by using the non-compartmental pharmacokinetics data analysis software of DAS version 3.2 (Bio Guider Co., Shanghai, China). The area under the plasma concentration-time curve from zero to infinity was calculated by using the linear trapezoidal rule with extrapolation to infinity with terminal constant eliminate rate (k e). Bioavailability was calculated as (AUCp.o./AUCi.v.) x (dosei.v./ dosep.o.) 100% as we previously described.

[2] = 5.62, 11.25 and 22.5 mg/kg p.o.

- CYP1A2 western blot staining density relative to controls (100%) (CYP1A2; female rats, 22.5 mg/kg/day p.o. for 7 days): 120 ± 16%
- CYP1A2 western blot staining density relative to controls (100%) (CYP1A2; female rats, 45 mg/kg/day p.o. for 7 days): 147 ± 21%
- CYP1A2 western blot staining density relative to controls (100%) (CYP1A2; male rats, 22.5 mg/kg/day p.o. for 7 days): 156 ± 19%
- CYP1A2 western blot staining density relative to controls (100%) (CYP1A2; male rats, 45 mg/kg/day p.o. for 7 days): 163 ± 12%
- C max and AUC in female dogs relative to male dogs (greater) [1, 2]: 1–2.4 fold
- CL/F in female dogs relative to male dogs (lower) [1, 2]: 1.5–3.6 fold
- V d /F in female dogs relative to male dogs (lower) [1, 2]: 1.3–2.38 fold
- AUC(0-inf) ([1]; female dogs, p.o. 5.6 mg/kg): 580 ± 120 ng·h/mL
- AUC(0-t) ([1]; female dogs, p.o. 5.6 mg/kg): 560 ± 110 ng·h/mL
- CL/F ([1]; female dogs, p.o. 5.6 mg/kg): 165 mL/min/kg
- Cmax ([1]; female dogs, p.o. 5.6 mg/kg): 70 ± 10 ng/mL
- Tmax ([1]; female dogs, p.o. 5.6 mg/kg): 1.67 ± 0.57 h
- Vd/F ([1]; female dogs, p.o. 5.6 mg/kg): 126 ± 7.1 L/kg
- half-life ([1]; female dogs, p.o. 5.6 mg/kg): 8.05 ± 1.12 h
- MRT last ([1]; female dogs, p.o. 5.6 mg/kg): 7.23 ± 1.69 h
- AUC(0-inf) ([1]; female dogs, p.o. 11.25 mg/kg): 1330 ± 110 ng·h/mL
- AUC(0-t) ([1]; female dogs, p.o. 11.25 mg/kg): 1280 ± 100 ng·h/mL
- CL/F ([1]; female dogs, p.o. 11.25 mg/kg): 141 mL/min/kg
- Cmax ([1]; female dogs, p.o. 11.25 mg/kg): 190 ± 30 ng/mL
- Tmax ([1]; female dogs, p.o. 11.25 mg/kg): 1.67 ± 0.57 h
- Vd/F ([1]; female dogs, p.o. 11.25 mg/kg): 105 ± 9.17 L/kg
- half-life ([1]; female dogs, p.o. 11.25 mg/kg): 8.57 ± 1.12 h
- MRT last ([1]; female dogs, p.o. 11.25 mg/kg): 8.62 ± 0.56 h
- AUC(0-inf) ([1]; female dogs, p.o. 22.5 mg/kg): 2560 ± 210 ng·h/mL
- AUC(0-t) ([1]; female dogs, p.o. 22.5 mg/kg): 2400 ± 150 ng·h/mL
- CL/F ([1]; female dogs, p.o. 22.5 mg/kg): 147 mL/min/kg
- Cmax ([1]; female dogs, p.o. 22.5 mg/kg): 380 ± 10 ng/mL
- Tmax ([1]; female dogs, p.o. 22.5 mg/kg): 1.66 ± 0.57 h
- Vd/F ([1]; female dogs, p.o. 22.5 mg/kg): 89.2 ± 14.1 L/kg
- half-life ([1]; female dogs, p.o. 22.5 mg/kg): 7.19 ± 2.83 h
- MRT last ([1]; female dogs, p.o. 22.5 mg/kg): 7 ± 0.61 h
- AUC(0-inf) ([1]; male dogs, p.o. 5.6 mg/kg): 230 ± 50 ng·h/mL
- AUC(0-t) ([1]; male dogs, p.o. 5.6 mg/kg): 210 ± 30 ng·h/mL
- CL/F ([1]; male dogs, p.o. 5.6 mg/kg): 266 mL/min/kg
- Cmax ([1]; male dogs, p.o. 5.6 mg/kg): 50 ng/mL
- Tmax ([1]; male dogs, p.o. 5.6 mg/kg): 2 h
- Vd/F ([1]; male dogs, p.o. 5.6 mg/kg): 187 ± 8.21 L/kg
- half-life ([1]; male dogs, p.o. 5.6 mg/kg): 8.18 ± 2.9 h
- MRT last ([1]; male dogs, p.o. 5.6 mg/kg): 7.16 ± 1.12 h
- AUC(0-inf) ([1]; male dogs, p.o. 11.25 mg/kg): 770 ± 110 ng·h/mL
- AUC(0-t) ([1]; male dogs, p.o. 11.25 mg/kg): 750 ± 100 ng·h/mL
- CL/F ([1]; male dogs, p.o. 11.25 mg/kg): 241 mL/min/kg
- Cmax ([1]; male dogs, p.o. 11.25 mg/kg): 150 ± 30 ng/mL
- Tmax ([1]; male dogs, p.o. 11.25 mg/kg): 2 h
- Vd/F ([1]; male dogs, p.o. 11.25 mg/kg): 136 ± 13.1 L/kg
- half-life ([1]; male dogs, p.o. 11.25 mg/kg): 5.54 ± 2.3 h
- MRT last ([1]; male dogs, p.o. 11.25 mg/kg): 5.68 ± 1.1 h
- AUC(0-inf) ([1]; male dogs, p.o. 22.5 mg/kg): 1600 ± 340 ng·h/mL
- AUC(0-t) ([1]; male dogs, p.o. 22.5 mg/kg): 1560 ± 310 ng·h/mL
- CL/F ([1]; male dogs, p.o. 22.5 mg/kg): 210 mL/min/kg
- Cmax ([1]; male dogs, p.o. 22.5 mg/kg): 300 ± 20 ng/mL
- Tmax ([1]; male dogs, p.o. 22.5 mg/kg): 2 h
- Vd/F ([1]; male dogs, p.o. 22.5 mg/kg): 123 ± 15 L/kg
- half-life ([1]; male dogs, p.o. 22.5 mg/kg): 6.79 ± 2.81 h
- MRT last ([1]; male dogs, p.o. 22.5 mg/kg): 6.18 ± 0.34 h
- increase of Cmax for female dogs versus male dogs ([1]; p.o. 5.6 mg/kg): 40%
Compound: CC#C[C@]1(O)CC[C@H]2[C@@H]3CCC4=CC(=O)CCC4=C3[C@@H](c3ccc(NC)cc3)C[C@@]21C [metapristone, N-monodemethyl mifepristone]
